Measured values reported in patent US20100056391A1, “INTEGRATED SCREENING ASSAYS AND METHODS OF USE” (Trustees of Princeton University, priority 2006, published 2010).

Test system: Dictyostelium cells
Test: Development of Dictyostelium cells in the presence of AFC (time-lapse imaging, FIG. 7)
Type: cell-based
Description: Accordingly, some embodiments of the present invention are directed to assays testing the effects of AFC on Dictyostelium cells.

Question: How did the “ability of the cells to form fruiting bodies” value (Dictyostelium cells treated with AFC) turn out when `CC(=O)N[C@@H](CSC/C=C(\C)CC/C=C(\C)CCC=C(C)C)C(=O)O` [AFC, N-acetyl-farnsyl cysteine] was run?
Answer: inhibited

Question: And the “mechanism by which individual cells aggregate into multicellular clusters (head-to-tail streaming while migrating)” value (compared with untreated cells, which line up head-to-tail and form streams, FIG. 7, 6.5, 8.5 and 9.25 hours)?
Answer: migrate, but do not line up head-to-tail
